Data: PMC9358669, “Native metabolomics identifies the rivulariapeptolide family of protease inhibitors” (Nature Communications, 2022)
Values joined by “and” are separate entries in the source; they are usually repeats but may differ in a detail not shown here. Equal values may be shown once. Read-outs that look alike come from different tables or passages of the source.

Tests used:
Chymotrypsin [1] = molecular target: T1, Chymotrypsin (Bos taurus, UniProt P00766); test: Chymotrypsin inhibition, fluorogenic substrate assay (Suc-Ala-Ala-Pro-Phe-AMC); type: biochemical; conditions: for Mean (RFU/s): Chymotrypsin
T1 construct: purchased Sigma-Aldrich

Elastase = molecular target: T2, Elastase (Sus scrofa, UniProt P00772); test: Elastase inhibition, fluorogenic substrate assay (MeOSuc-Ala-Ala-Pro-Val-AMC); type: biochemical, Sus domesticus; conditions: 40 min pre-incubation; for Mean (RFU/s): Elastase
T2 construct: purchased Sigma-Aldrich
T2 sequence (P00772 27-266): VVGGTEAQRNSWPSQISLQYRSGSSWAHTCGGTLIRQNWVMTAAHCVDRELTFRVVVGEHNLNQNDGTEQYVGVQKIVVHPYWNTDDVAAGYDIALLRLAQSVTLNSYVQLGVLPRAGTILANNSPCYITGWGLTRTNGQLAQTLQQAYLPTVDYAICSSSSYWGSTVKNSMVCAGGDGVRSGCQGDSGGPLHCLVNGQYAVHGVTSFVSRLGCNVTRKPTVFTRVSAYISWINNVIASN

Proteinase K = molecular target: T3, Proteinase K (Parengyodontium album, UniProt P06873); test: Proteinase K inhibition, fluorogenic substrate assay (Suc-Ala-Ala-Pro-Phe-AMC); type: biochemical, Tritirachium album; conditions: 40 min pre-incubation; for Mean (RFU/s): Proteinase K
T3 construct: purchased Roche
T3 sequence (P06873 106-384): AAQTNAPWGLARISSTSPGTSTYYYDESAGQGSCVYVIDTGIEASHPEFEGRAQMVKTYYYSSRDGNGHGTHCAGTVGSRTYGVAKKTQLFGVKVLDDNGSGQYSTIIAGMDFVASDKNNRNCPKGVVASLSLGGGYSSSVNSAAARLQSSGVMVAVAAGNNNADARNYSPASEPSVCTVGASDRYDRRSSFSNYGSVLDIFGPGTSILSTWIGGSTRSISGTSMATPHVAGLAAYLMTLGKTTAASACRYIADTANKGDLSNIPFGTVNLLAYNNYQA

Chymotrypsin [2] = molecular target: T1, Chymotrypsin; test: Native metabolomics / native MS detection of chymotrypsin-ligand complexes; type: binding; conditions: for max. Ligand-protein ratio: replicates A, B, C
Experimental: For native metabolomics experiments, the same chromatographic parameters were used and in addition, 220 µL/min (setup A) or 150 µL/min (setup B) ammonium acetate buffer was infused post-column through a make-up pump and a PEEKT-splitter and enzyme solution was infused with 2 µL/min flow rate via the integrated syringe pump. ESI settings were set to 40 arb. units sheath gas flow, the auxiliary gas flow was set to 10 arb. units and sweep gas flow was set to 0 arb. units. The auxiliary gas temperature was set to 150 °C. The spray voltage was set to 3 kV and the inlet capillary was heated to 253 °C. S-lens level was set to 30 V applied. MS scan range was set to 2000-4000 m/z (setup A) and 2500–4000 m/z (setup B) with a resolution Rm/z 200 140,000 (setup A) and 120,000 (setup B) with 2 microscans. MS acquisition was performed in all-ion fragmentation (AIF) mode with Rm/z 200 with 20% HCD collision energy and an isolation window of 2000 –4000 m/z (setup A) or 2500–4000 m/z (setup B).
For native LC-MS data, multiple charged spectra were deconvoluted using the Xtract algorithm in Qualbrowser, part of the Xcalibur software (Thermo Scientific) and also using FLASHDeconv (version 2.0Beta) {Jeong, K. et al. FLASHDeconv: Ultrafast, High-Quality Feature Deconvolution for Top- Down Proteomics. Cell Syst 10, 213-218 e216 (2020).}. For Xtract algorithm, both deconvoluted native LC-MS and metabolomics LC-MS/MS.raw files were converted to the centroid.mzML file format using MSconvert of the proteowizard software package. For FLASHDeconv, the raw files were converted into centroid m/zML again using MSconvert software first. Then the converted mzML files were deconvolved to generate deconvolved.mzML format files. Feature finding of both file types was performed using a modified version of MZmine2.37 (corr.17.7). Feature tables from both intact protein mass and metabolomics data were matched by their retention time (RT) and an m/z offset corresponding to the mass of chymotrypsin (25234 Da) with an RT tolerance of 0.2 min and a mass tolerance of 4 Da.
To optimize ESI setting as well as the influence of NH4Acetate concentration and pH, we used molassamide as a test compound. For optimization of ESI settings, we performed flow injections without a column and ramped ESI aux gas temperature, in-source CID energy, S-lense RF voltage. Optimization of pH values over the entire LC gradient and peak intensities were both assessed using three different make-up buffers. Make-up buffer 1 was water, make-up buffer 2 was 10 mM NH4Acetate buffer, and make-up buffer 3 was 10 mM NH4Acetate buffer + 0.2% ammonium hydroxide, v/v. Effects of NH4Acetate concentration was assessed with an online mixed make-up flow (using Experimental Setup B) with the low-pressure gradient pump. As solvent A we used LC-MS grade water and 100 mM NH4Acetate as solvent B. Molassamide was prepared as 100 µM solutions from a 10 mM stock solution in DMSO by preparing a 1:100 dilution into solvent mixture 1 (water + 10% acetonitrile + 0.1% formic acid). Samples were analyzed as described in micro-flow LC-MS/MS data acquisition (setup A); 2 µL of each solution were injected into the mass spectrometer, while chymotrypsin (Sigma), dissolved in water to a final concentration of 2 mg/mL, was injected through the syringe pump at a flow rate of 2 µL/min. pH values were assessed by disconnecting the flow to the source and collecting ~30 µL of solvent every minute, then testing this value on pH paper.
Molassamide was prepared as 100 µM solutions from a 10 mM stock solution in DMSO by preparing a 1:100 dilution into solvent mixture 1 (water + 10% acetonitrile + 0.1% formic acid). From this 100 µM solution, dilutions were prepared at 10, 1, and 0.1 µM into solvent mixture 1. 2 µL of each solution were injected into the mass spectrometer. […]

Chymotrypsin [3] = tested on: Chymotrypsin; design: method as in earlier work; conditions: Supplementary Table 5, Top 50 chymotrypsin inhibitors among Ahp-cyclodepsipeptides; cited from earlier work
[4] = inhibitor concentration 0.0508053 nM
[5] = inhibitor concentration 0.152416 nM
[6] = inhibitor concentration 0.457247 nM
[7] = inhibitor concentration 1.37174 nM
[8] = inhibitor concentration 4.11523 nM
[9] = inhibitor concentration 12.3457 nM
[10] = inhibitor concentration 37.037 nM
[11] = inhibitor concentration 111.111 nM
[12] = inhibitor concentration 333.333 nM
[13] = inhibitor concentration 1000 nM
[14] = inhibitor concentration 3000 nM

## C/C=C1\NC(=O)[C@@H](NC(=O)[C@@H](NC(=O)[C@H](C)NC(=O)CCC)[C@@H](C)O)[C@@H](C)OC(=O)[C@H](C(C)C)NC(=O)[C@H](Cc2ccc(O)cc2)N(C)C(=O)[C@H](Cc2ccccc2)N2C(=O)[C@H](CC[C@H]2O)NC1=O [Molassamide, molassamide]
Chymotrypsin [1]; 40 min pre-incubation, mean, n = 3, read-out: IC50 Chymotrypsin
  IC50: 863 nM
Chymotrypsin [1]; inhibitor concentration 0.0508053 nM, 40 min pre-incubation
  Mean (RFU/s): 5.082 RFU/s
Chymotrypsin [1]; inhibitor concentration 0.152416 nM, 40 min pre-incubation
  Mean (RFU/s): 5.023 RFU/s
Chymotrypsin [1]; inhibitor concentration 0.457247 nM, 40 min pre-incubation
  Mean (RFU/s): 5.172 RFU/s
Chymotrypsin [1]; inhibitor concentration 1.37174 nM, 40 min pre-incubation
  Mean (RFU/s): 5.411 RFU/s
Chymotrypsin [1]; inhibitor concentration 4.11523 nM, 40 min pre-incubation
  Mean (RFU/s): 5.346 RFU/s
Chymotrypsin [1]; inhibitor concentration 12.3457 nM, 40 min pre-incubation
  Mean (RFU/s): 5.257 RFU/s
Chymotrypsin [1]; inhibitor concentration 37.037 nM, 40 min pre-incubation
  Mean (RFU/s): 4.609 RFU/s
Chymotrypsin [1]; inhibitor concentration 111.111 nM, 40 min pre-incubation
  Mean (RFU/s): 4.56 RFU/s
Chymotrypsin [1]; inhibitor concentration 333.333 nM, 40 min pre-incubation
  Mean (RFU/s): 3.784 RFU/s
Chymotrypsin [1]; inhibitor concentration 1000 nM, 40 min pre-incubation
  Mean (RFU/s): 2.129 RFU/s
Chymotrypsin [1]; inhibitor concentration 3000 nM, 40 min pre-incubation
  Mean (RFU/s): 0.9597 RFU/s
Chymotrypsin [1]; Supplementary Table 5, compounds of this study, read-out: Chymotrypsin IC50
  IC50: 862 nM
Elastase; mean, n = 3
  IC50: 37.6 nM
Elastase; [4]
  Mean (RFU/s): 0.8563 RFU/s
Elastase; [5]
  Mean (RFU/s): 0.8307 RFU/s
Elastase; [6]
  Mean (RFU/s): 0.841 RFU/s
Elastase; [7]
  Mean (RFU/s): 0.8127 RFU/s
Elastase; [8]
  Mean (RFU/s): 0.7663 RFU/s
Elastase; [9]
  Mean (RFU/s): 0.6947 RFU/s
Elastase; [10]
  Mean (RFU/s): 0.4253 RFU/s
Elastase; [11]
  Mean (RFU/s): 0.1337 RFU/s
Elastase; [12]
  Mean (RFU/s): 0.03867 RFU/s
Elastase; [13]
  Mean (RFU/s): 0 RFU/s
Elastase; [14]
  Mean (RFU/s): 0 RFU/s
Proteinase K; mean, n = 3
  IC50: 21.6 nM
Proteinase K; [4]
  Mean (RFU/s): 6.609 RFU/s
Proteinase K; [5]
  Mean (RFU/s): 6.463 RFU/s
Proteinase K; [6]
  Mean (RFU/s): 6.371 RFU/s
Proteinase K; [7]
  Mean (RFU/s): 6.067 RFU/s
Proteinase K; [8]
  Mean (RFU/s): 5.597 RFU/s
Proteinase K; [9]
  Mean (RFU/s): 4.375 RFU/s
Proteinase K; [10]
  Mean (RFU/s): 2.174 RFU/s
Proteinase K; [11]
  Mean (RFU/s): 0.71 RFU/s
Proteinase K; [12]
  Mean (RFU/s): 0.19 RFU/s
Proteinase K; [13]
  Mean (RFU/s): 0.07 RFU/s
Proteinase K; [14]
  Mean (RFU/s): 0 RFU/s
Chymotrypsin [2]; HESI Aux Gas Temperature 40 °C
  Relative abundance Chymotrypsin-molassamide complex [%], Average: 32.7%
Chymotrypsin [2]; HESI Aux Gas Temperature 70 °C
  Relative abundance Chymotrypsin-molassamide complex [%], Average: 28.3%
Chymotrypsin [2]; HESI Aux Gas Temperature 100 °C
  Relative abundance Chymotrypsin-molassamide complex [%], Average: 32.3%
Chymotrypsin [2]; HESI Aux Gas Temperature 140 °C
  Relative abundance Chymotrypsin-molassamide complex [%], Average: 39.0%
Chymotrypsin [2]; HESI Aux Gas Temperature 170 °C
  Relative abundance Chymotrypsin-molassamide complex [%], Average: 34.0%
Chymotrypsin [2]; HESI Aux Gas Temperature 200 °C
  Relative abundance Chymotrypsin-molassamide complex [%], Average: 35.3%
Chymotrypsin [2]; HESI Aux Gas Temperature 250 °C
  Relative abundance Chymotrypsin-molassamide complex [%], Average: 27.7%
Chymotrypsin [2]; HESI Aux Gas Temperature 300 °C
  Relative abundance Chymotrypsin-molassamide complex [%], Average: 28.7%
Chymotrypsin [2]; In-Source CID Energy 0 eV
  Relative abundance Chymotrypsin-molassamide complex [%], Average: 27.7%
Chymotrypsin [2]; In-Source CID Energy 10 eV
  Relative abundance Chymotrypsin-molassamide complex [%], Average: 29.3%
Chymotrypsin [2]; In-Source CID Energy 20 eV
  Relative abundance Chymotrypsin-molassamide complex [%], Average: 33.0%
Chymotrypsin [2]; In-Source CID Energy 30 eV
  Relative abundance Chymotrypsin-molassamide complex [%], Average: 32.3%
Chymotrypsin [2]; In-Source CID Energy 40 eV
  Relative abundance Chymotrypsin-molassamide complex [%], Average: 30.7%
Chymotrypsin [2]; In-Source CID Energy 60 eV
  Relative abundance Chymotrypsin-molassamide complex [%], Average: 12.3%
Chymotrypsin [2]; In-Source CID Energy 80 eV
  Relative abundance Chymotrypsin-molassamide complex [%], Average: 1.3%
Chymotrypsin [2]; S-Lense RF level 10 %
  Relative abundance Chymotrypsin-molassamide complex [%], Average: 34.3%
Chymotrypsin [2]; S-Lense RF level 30 %
  Relative abundance Chymotrypsin-molassamide complex [%], Average: 31.0%
Chymotrypsin [2]; S-Lense RF level 50 %
  Relative abundance Chymotrypsin-molassamide complex [%], Average: 30.0%
Chymotrypsin [2]; S-Lense RF level 70 %
  Relative abundance Chymotrypsin-molassamide complex [%], Average: 40.7%
Chymotrypsin [2]; S-Lense RF level 90 %
  Relative abundance Chymotrypsin-molassamide complex [%], Average: 30.7%
Chymotrypsin [2]; concentration 0.01 µM
  max. Ligand-protein ratio: 0.00
Chymotrypsin [2]; concentration 0.10 µM
  max. Ligand-protein ratio: 0.0566 and 0.0543 and 0.05
Chymotrypsin [2]; concentration 1.00 µM
  max. Ligand-protein ratio: 0.25 and 0.22 and 0.26
Chymotrypsin [2]; concentration 6.67 µM
  max. Ligand-protein ratio: 0.77 (2×) and 0.82
Chymotrypsin [2]; concentration 12.50 µM
  max. Ligand-protein ratio: 0.98 and 0.93 and 0.99
Chymotrypsin [2]; concentration 20.00 µM
  max. Ligand-protein ratio: 0.94 (2×) and 1.00
Chymotrypsin [2]; concentration [µM] 0.1
  Peak Area Protein-Ligand-Complex: 6.16E+04
Chymotrypsin [2]; concentration [µM] 1
  Peak Area Protein-Ligand-Complex: 8.18E+05
Chymotrypsin [2]; concentration [µM] 10
  Peak Area Protein-Ligand-Complex: 1.09E+07
Chymotrypsin [2]; concentration [µM] 50
  Peak Area Protein-Ligand-Complex: 4.40E+07
Chymotrypsin [2]; concentration [µM] 100
  Peak Area Protein-Ligand-Complex: 7.00E+07
Chymotrypsin [3]
  IC50: 234 nM
